From ChEMBL document CHEMBL6103651, “Total Syntheses, Absolute Configuration, and Cytotoxicity Evaluation of Ugonins L, S, U, and Z from the Rhizomes of Helminthostachys zeylanica” (J Nat Prod, 2025)

Columns and labels:
HT-29 = assay: Cytotoxicity against human HT-29 cells assessed as cell growth inhibition incubated for 6 hrs by SRB assay; assay type: functional, cell-based; conditions: HT-29, 6 h
MCF7 = assay: Cytotoxicity against human MCF7 cells assessed as cell growth inhibition incubated for 6 hrs by SRB assay; assay type: functional, cell-based; conditions: MCF7, 6 h
CCRF-CEM = assay: Cytotoxicity against human CEM cells assessed as cell growth inhibition incubated for 6 hrs by SRB assay; assay type: functional, cell-based
NCI-H460 = assay: Cytotoxicity against human NCI-H460 cells assessed as cell growth inhibition incubated for 6 hrs by SRB assay; assay type: functional, cell-based; conditions: NCI-H460, 6 h
[1] = Cytotoxicity against fibroblasts (unknown origin) assessed as cell growth inhibition incubated for 6 hrs by SRB assay; assay type: toxicity, cell-based, Fibroblast

SMILES | IC50 (HT-29) | IC50 (MCF7) | IC50 (CCRF-CEM) | IC50 (NCI-H460) | IC50 at 6 h [1]
CC1(C)CCC[C@@]2(C)Oc3cc4oc(-c5ccc(O)c(O)c5)cc(=O)c4c(O)c3C[C@@H]12 | 37.1 µM | 19.1 µM | 5.2 µM | 7.1 µM | 37.1 µM
CC1(C)CCC[C@]2(C)Oc3cc4oc(-c5ccc(O)c(O)c5)cc(=O)c4c(O)c3C[C@H]12 | 21.9 µM | 16.7 µM | 4.2 µM | 2.2 µM | 24.5 µM
COc1cccc2c1C(=O)c1c(O)c3c(c(O)c1C2=O)C[C@@](O)(C(=O)CO)C[C@@H]3O[C@H]1C[C@H](N)[C@H](O)[C@H](C)O1 [DOXORUBICIN] | 0.23 µM | 0.54 µM | 0.11 µM | 0.01 µM | 56.3 µM
CC1(C)CCC[C@]2(C)Oc3c(c(O)cc4oc(-c5ccc(O)c(O)c5)cc(=O)c34)C[C@H]12 | 34.1 µM | 18.9 µM | 5.9 µM |  | 34.1 µM
CC1(C)CCC[C@@]2(C)Oc3cc(O)c4c(=O)cc(-c5ccc(O)c(O)c5)oc4c3C[C@@H]12 | 27.5 µM | 28.2 µM | 16.4 µM | 18.3 µM | 27.5 µM
CC1(C)CCC[C@@]2(C)Oc3c(c(O)cc4oc(-c5ccc(O)c(O)c5)cc(=O)c34)C[C@@H]12 [UGONIN S] | 21.9 µM | 8.8 µM | 6.2 µM |  | 21.9 µM
CC1(C)CCC[C@]2(C)Oc3cc(O)c4c(=O)cc(-c5ccc(O)c(O)c5)oc4c3C[C@H]12 | 33.2 µM | 26 µM | 1.7 µM | 17.5 µM | 33.2 µM
CC1(C)CCC[C@]2(C)Oc3c(c(O)cc4oc(-c5ccc(O)c(O)c5)cc(=O)c34)C[C@@H]12 | 24.5 µM | 6.5 µM | 4.2 µM |  | 24.5 µM
CC1(C)CCC[C@@]2(C)Oc3c(c(O)cc4oc(-c5ccc(O)c(O)c5)cc(=O)c34)C[C@H]12 | 36 µM | 17.7 µM | 4.8 µM |  | 36 µM
